# In patent publication EP0316212B1 (priority 1987, dated 1989):
# Columns and labels:
# Cellules T = assay: Proliferation of mouse T cells (3H-thymidine incorporation); format: cell-based, souris
# Source text: (§1) Les anticorps utilisés sont des anticorps monoclonaux (AM) naturels (N5-12, N5-17, MO-1, 62-1, D-23) et proviennent d'hybridomes préparés par fusion des cellules de rate de souris n'ayant reçu aucune immunisation au préalable ni aucune stimulation mitogénique, avec le myélome de souris X63-Ag8. Les hybridomes TNP11 et TNP9 proviennent de fusion des cellules de rate de souris immunisées avec du Ficoll-TNP. Ils ont été maintenus en culture dans le milieu RPMI complet contenant 10% de sérum de veau foetal. Les hybridomes ont été injectés à des souris Balb/c préalablement traitées au pristane dans le but d'obtenir des ascites. Les AM ont été utilisés en tant que surnageants de culture ou en tant qu'ascites ou après isolement par chromatographie d'affinité sur une colonne de DNP-Sépharose. Ces anticorps ont été testés par test immunoenzymatique sur différents antigènes immobilisés sur des plaques de polystyrène et révélés par un anticorps anti-Ig de souris couplé à la β-galactosidase.
# (§2) Le TNP a été couplé à la sérumalbumine bovine (BSA) par la méthode de Little & Eisen : 1ml de BSA à 20mg/ml dans le tampon carbonate-bicarbonate, 0,1M, pH 9,5, est ajouté à 1ml d'une solution d'acide trinitrobenzène sulfonique à 2 mg/ml dans le même tampon. La réaction est arrêtée après 30 à 120 minutes selon la substitution voulue par élimination de l'excès de réactifs sur échangeur d'ions (Dowex 1 x 4) puis dialyse. Des préparations de BSA substituée avec soit 14 ou 30 molécules de TNP par molécule de BSA (TNP₁₄-BSA ou TNP₃₀-BSA) ont été utilisées.
# (§3) Le DNP-Glycine (DNP-Gly) et le DNP-Lysine (DNP-Lys) proviennent des Laboratoires Sigma et sont solubilisés directement dans le milieu de culture.
# (§4) Les cellules proviennent de rate ou de thymus de souris. Les souris sont tuées par dislocation cervicale et leur rate ou leur thymus prélevé stérilement sont déposés dans du milieu RPMI. Les cellules sont dissociées, lavées une fois avec du milieu puis les globules rouges sont lysés au chlorure d'ammonium (0,9%) pendant 1 minute à froid puis les cellules sont relavées dans le milieu complet.
# (§5) Les sous-populations de cellules B ou T sont ensuite séparées comme suit : • Sous-population T : les cellules T sont obtenues à partir de la population de cellules de la rate par élimination des cellules portant des Ig à leur surface (sous-population B) sur des anticorps anti-Ig de souris immobilisés soit sur des billes magnétiques (Magnogel)® soit sur des boites de Pétri. • Sous-population B : les cellules B sont obtenues après détachement mécanique des supports dur lesquels elles étaient fixées par l'intermédiaire des anticorps anti-Ig (après l'isolement des cellules T), ou après élimination de la sous-population des cellules T de la population totale des cellules de rate par un traitement avec un anticorps anti-cellules T suivi de complément de cobaye. • Thymocytes : les thymocytes sont dissociés dans le RPMI et les cellules isolées sont lavées dans le milieu complet avant d'être mises en culture.
# (§6) Le milieu de culture utilisé est du RPMI 1640 contenant du sérum de veau foetal (5%), du pyruvate de sodium (1mM), de la L-glutamine (1mM), du 2-mercaptoethanol (0,05 mM), de la pénicilline (100»g/ml) et de la streptomycine (50»g/ml).
# (§7) 2x10⁵ cellules de chaque population cellulaire ou 4x10⁵ de cellules de rate non fractionnées sont distribuées sous un volume final de 200»l dans des boîtes de culture de 96 puits à fond plat en présence ou non des différents stimulateurs (ou mitogènes)(40»g/ml de lipopolysaccharide W Salmonella typhosa 2»g/ml de concanavaline A, ou des surnageants de culture contenant les anticorps monoclonaux à différentes dilutions ou une solution de TNP-BSA à des concentrations finales allant de 200ng à 200»g/ml). Les cultures sont effectuées pendant 48 à 96 heures à 37°C dans une atmosphère de 5% de CO2.
# (§8) Six à huit heures avant la fin de la culture, 100»l de surnageant sont prélevés de chaque puits de culture afin d'être testés quant à leur contenu en anticorps. […]
# Cellules B = assay: Proliferation of mouse B cells (3H-thymidine incorporation); format: cell-based, souris
# Source text: as §1, §2, §3, §4, §5, §6, §7, §8
# [1] = tested on: VSV (Vesicular Stomatitis Virus); assay: microbe, parasite or virus in culture; format: cell-based
# [2] = tested on: EMCV (Encephalomyocarditis Virus); assay: microbe, parasite or virus in culture; format: cell-based
# Cellules de rate = assay: Proliferation of mouse spleen cells (3H-thymidine incorporation); format: cell-based, souris
# Source text: as §1, §2, §3, §4, §6, §7
# Six à huit heures avant la fin de la culture, 100»l de surnageant sont prélevés de chaque puits de culture afin d'être testés quant à leur contenu en anticorps. 10»l d'une solution de ³H-thymidine (activité spécifique = […]) à 50 »Ci/ml sont ajoutés à la culture qui est ensuite poursuivie. Les cellules de chaque puits sont collectées sur du papier filtre à l'aide d'un collecteur automatique et, après sèchage, les filtres sont comptés dans un liquide scintillant.
# [3] = tested on: virus de la chorioméningite lymphocytaire (CML); assay: organism not typed; format: cell-based; conditions: préincubés avec les cellules L929
# [4] = 12 (µg/ml), conA* (mitogène ajouté après 48 heures)
# [5] = 50 (µg/ml), conA* (mitogène ajouté après 48 heures)
# [6] = 12 (µg/ml), LPS* (mitogène ajouté après 48 heures)
# [7] = 50 (µg/ml), LPS* (mitogène ajouté après 48 heures)
substance,measurement,setting,value
TNP-BSA,pourcentage d'augmentation (+) ou d'inhibition (-) de la prolifération,"Cellules T; 0,7 (µg/ml), M (milieu seul)",0%
same,pourcentage d'augmentation (+) ou d'inhibition (-) de la prolifération,"Cellules T; 0,7 (µg/ml), conA* (mitogène ajouté après 48 heures)",-50%
same,pourcentage d'augmentation (+) ou d'inhibition (-) de la prolifération,"Cellules T; 200µg/ml, M (milieu seul)",+30%
same,pourcentage d'augmentation (+) ou d'inhibition (-) de la prolifération,"Cellules T; 200µg/ml, conA* (mitogène ajouté après 48 heures)",-50%
same,pourcentage d'augmentation (+) ou d'inhibition (-) de la prolifération,"Cellules T; 3 (µg/ml), M (milieu seul)",0%
same,pourcentage d'augmentation (+) ou d'inhibition (-) de la prolifération,"Cellules T; 3 (µg/ml), conA* (mitogène ajouté après 48 heures)",-40%
same,pourcentage d'augmentation (+) ou d'inhibition (-) de la prolifération,"Cellules T; 12 (µg/ml), M (milieu seul)",+20%
same,pourcentage d'augmentation (+) ou d'inhibition (-) de la prolifération,Cellules T; [4],-20%
same,pourcentage d'augmentation (+) ou d'inhibition (-) de la prolifération,"Cellules T; 50 (µg/ml), M (milieu seul)",+18%
same,pourcentage d'augmentation (+) ou d'inhibition (-) de la prolifération,Cellules T; [5],-25%
same,pourcentage d'augmentation (+) ou d'inhibition (-) de la prolifération,"Cellules B; 200µg/ml, LPS* (mitogène ajouté après 48 heures)",+18%
same,pourcentage d'augmentation (+) ou d'inhibition (-) de la prolifération,"Cellules B; 200µg/ml, M (milieu seul)",+100%
same,pourcentage d'augmentation (+) ou d'inhibition (-) de la prolifération,"Cellules B; 3 (µg/ml), LPS* (mitogène ajouté après 48 heures)",0%
same,pourcentage d'augmentation (+) ou d'inhibition (-) de la prolifération,"Cellules B; 3 (µg/ml), M (milieu seul)",0%
same,pourcentage d'augmentation (+) ou d'inhibition (-) de la prolifération,Cellules B; [6],0%
same,pourcentage d'augmentation (+) ou d'inhibition (-) de la prolifération,"Cellules B; 12 (µg/ml), M (milieu seul)",0%
same,pourcentage d'augmentation (+) ou d'inhibition (-) de la prolifération,Cellules B; [7],0%
same,pourcentage d'augmentation (+) ou d'inhibition (-) de la prolifération,"Cellules B; 50 (µg/ml), M (milieu seul)",+50%
same,% Inhibition,"[1]; 0,03 mg/ml",0%
same,% Inhibition,"[1]; 0,5 mg/ml",12%
same,% Inhibition,"[1]; 0,06 mg/ml",0%
same,% Inhibition,"[1]; 0,12 mg/ml",0%
same,% Inhibition,"[1]; 0,25 mg/ml",0%
same,% Inhibition,"[1]; 1,0 mg/ml",15%
same,% Inhibition,"[1]; 2,0 mg/ml",24%
same,% Inhibition,"[2]; 0,03 mg/ml",0%
same,% Inhibition,"[2]; 0,5 mg/ml",8%
same,% Inhibition,"[2]; 0,06 mg/ml",0%
same,% Inhibition,"[2]; 0,12 mg/ml",0%
same,% Inhibition,"[2]; 0,25 mg/ml",0%
same,% Inhibition,"[2]; 1,0 mg/ml",4%
same,% Inhibition,"[2]; 2,0 mg/ml",14%
same,pourcentage d'augmentation (+) ou d'inhibition (-) de la prolifération,"Cellules de rate; 200µg/ml, LPS* (mitogène ajouté après 48 heures avec le dérivé NP)",+30%
same,pourcentage d'augmentation (+) ou d'inhibition (-) de la prolifération,"Cellules de rate; 200µg/ml, M (milieu seul)",+50%
same,pourcentage d'augmentation (+) ou d'inhibition (-) de la prolifération,"Cellules de rate; 200µg/ml, conA* (mitogène ajouté après 48 heures avec le dérivé NP)",+46%
same,pourcentage d'augmentation (+) ou d'inhibition (-) de la prolifération,Cellules de rate; [6],0%
same,pourcentage d'augmentation (+) ou d'inhibition (-) de la prolifération,"Cellules de rate; 12 (µg/ml), M (milieu seul)",+10%
same,pourcentage d'augmentation (+) ou d'inhibition (-) de la prolifération,Cellules de rate; [4],+28%
same,pourcentage d'augmentation (+) ou d'inhibition (-) de la prolifération,Cellules de rate; [7],+20%
same,pourcentage d'augmentation (+) ou d'inhibition (-) de la prolifération,"Cellules de rate; 50 (µg/ml), M (milieu seul)",+30%
same,pourcentage d'augmentation (+) ou d'inhibition (-) de la prolifération,Cellules de rate; [5],+30%
same,% Inhibition,[3]; 0.12 mg/ml,0%
same,% Inhibition,[3]; 0.25 mg/ml,22%
same,% Inhibition,[3]; 0.5 mg/ml,48%
same,% Inhibition,[3]; 1 mg/ml,63%
